In ChEMBL document CHEMBL2375311, “Cytotoxic 3,4,5-trimethoxychalcones as mitotic arresters and cell migration inhibitors” (Eur J Med Chem, 2013):
Calls of active or inactive are those of the source. The calls are words filed in the database; no cut-off is given here.

Tests used:
[1] = Inhibition of bovine brain tubulin assembly after 20 mins by spectrophotometric analysis; design: species or system Bos taurus
[2] = tested on: HeLa; assay: Antimitotic activity in human HeLa cells assessed as increase in phosphohistone H3 level after 24 hrs by Hoechst 33342 staining; type: functional
[3] = tested on: Jurkat; assay: Cytotoxicity against human Jurkat cells after 48 hrs by MTT assay; type: functional, cell-based
[4] = tested on: PBMC; assay: Cytotoxicity against human PBMC cells after 24 hrs by MTT assay; type: cell-based
[5] = tested on: L1210; assay: Cytotoxicity against mouse L1210 cells after 24 hrs by MTT assay; type: functional, cell-based; details: L1210, 24 h
[6] = tested on: HeLa; assay: Antimitotic activity in human HeLa cells assessed as tubulin intensity after 24 hrs by Hoechst 33342 staining; type: functional; details: read-out: MEC
[7] = tested on: HeLa; assay: Antimitotic activity in human HeLa cells assessed as cell density loss after 24 hrs by Hoechst 33342 staining; type: functional, cell-based
[8] = tested on: HeLa; assay: Antimitotic activity in human HeLa cells assessed as chromatin condensation after 24 hrs by Hoechst 33342 staining; type: functional; details: read-out: MEC
[9] = tested on: REH; assay: Cytotoxicity against human REH cells after 48 hrs by MTT assay; type: functional, cell-based
[10] = tested on: HeLa; assay: Antimitotic activity in human HeLa cells assessed as tubulin staining intensity at 1 nM after 24 hrs by Hoechst 33342 staining; type: functional, cell-based
[11] = tested on: MDA-MB-231; assay: Antimigratory activity against human MDA-MB-231 cells after 6 hrs by Boyden chamber migration assay; type: functional, cell-based; details: MDA-MB-231, 6 h
[12] = tested on: HeLa; assay: Cell cycle arrest in human HeLa cells assessed as disorganized microtubules at 940 nM after 24 hrs by Hoechst 33342 staining; type: functional, cell-based
[13] = tested on: MDA-MB-231; assay: Antimigratory activity against human MDA-MB-231 cells at 0.5 to 5 uM after 22 hrs by scratch wound healing assay; type: functional, cell-based
[14] = tested on: NIH3T3; assay: Cytotoxicity against mouse NIH/3T3 cells after 24 hrs by MTT assay; type: cell-based; details: NIH3T3, 24 h
[15] = tested on: MDA-MB-231; assay: Antimigratory activity against human MDA-MB-231 cells at 1 uM after 22 hrs by scratch wound healing assay; type: functional
[16] = tested on: HeLa; assay: Antimitotic activity in human HeLa cells assessed as tubulin staining intensity at 5 nM after 24 hrs by Hoechst 33342 staining; type: functional, cell-based
[17] = tested on: HUVEC; assay: Cytotoxicity against human HUVEC cells after 24 hrs by MTT assay; type: cell-based
[18] = tested on: HeLa; assay: Cell cycle arrest in human HeLa cells assessed as disorganized microtubules at 62 nM after 24 hrs by Hoechst 33342 staining; type: functional, cell-based
[19] = tested on: HeLa; assay: Cell cycle arrest in human HeLa cells assessed as disorganized microtubules at 470 nM after 24 hrs by Hoechst 33342 staining; type: functional, cell-based

Compound: COc1ccc(/C=C/C(=O)c2ccc3c(c2)OCO3)c(OC)c1OC
- IC50 [1]: > 10 µM
- Activity [2]: > 50000 nM
- IC50 [3]: 30 µM
- IC50 [4]: 81.2 µM
- IC50 [5]: 47.5 µM
- minimal effective concentration [6]: > 50 µM
- EC50 [7]: > 50 µM
- minimal effective concentration [8]: > 50 µM
- IC50 [9]: 23.6 µM

Compound: COc1cc(C(=O)/C=C/c2cc(Cl)cc(Cl)c2)cc(OC)c1OC
- IC50 [5]: 44 µM

Compound: COc1cc(C(=O)/C=C/c2ccc(Cl)c(Cl)c2)cc(OC)c1OC
- IC50 [5]: 44 µM

Compound: COc1cc(C(=O)/C=C/c2ccc3ccccc3c2)cc(OC)c1OC
- IC50 [1]: 2.2 µM
- Activity [10]: inactive
- Activity [2]: 397 nM
- IC50 [3]: 0.5 µM
- IC50 [4]: 18 µM
- IC50 [11]: 1.09 µM
- IC50 [5]: 26 µM
- Activity [12]: Active
- Activity [13]: Active
- IC50 [14]: 34 µM
- EC50 [7]: 0.684 µM
- Activity [15]: 46%
- IC50 [9]: 0.73 µM
- Activity [16]: Active
- IC50 [17]: 37 µM

Compound: COc1ccc(/C=C/C(=O)c2cc(OC)c(OC)c(OC)c2)cc1
- IC50 [5]: 48 µM

Compound: COc1cc(C(=O)/C=C/c2ccc(Cl)c(C(F)(F)F)c2)cc(OC)c1OC
- IC50 [5]: 47.5 µM

Compound: COc1cc(C(=O)/C=C/c2ccc(Br)cc2)cc(OC)c1OC
- IC50 [5]: > 100 µM

Compound: COc1cc(C(=O)/C=C/c2ccc(C)cc2)cc(OC)c1OC
- IC50 [5]: 50.5 µM

Compound: COc1cc(/C=C/C(=O)c2cc(OC)c(OC)c(OC)c2)ccc1O
- IC50 [5]: > 100 µM

Compound: COc1cc(C(=O)/C=C/c2ccc(C)o2)cc(OC)c1OC
- IC50 [5]: 46.5 µM

Compound: COc1cc(/C=C/C(=O)c2cc(OC)c(OC)c(OC)c2)cc(OC)c1OC
- IC50 [5]: > 100 µM

Compound: COc1cc2c(c(OC)c1OC)-c1ccc(OC)c(=O)cc1[C@@H](NC(C)=O)CC2 [COLCHICINE]
- Activity [10]: inactive
- Activity [18]: Active
- Activity [13]: Active
- Activity [15]: 74%
- Activity [16]: Active

Compound: COc1cc(C(=O)/C=C/c2ccc3ccccc3c2)ccc1O
- IC50 [1]: 3.6 µM
- Activity [2]: 1400 nM
- IC50 [3]: 5.9 µM
- IC50 [4]: 35.6 µM
- IC50 [5]: 54 µM
- minimal effective concentration [6]: 1.1 µM
- EC50 [7]: 3.3 µM
- minimal effective concentration [8]: 2.2 µM
- IC50 [9]: 2.58 µM

Compound: COc1cc(OC)c(/C=C/C(=O)c2cc(OC)c(OC)c(OC)c2)c(OC)c1
- IC50 [5]: 62.5 µM

Compound: COc1cc(OC)c(OC)cc1/C=C/C(=O)c1cc(OC)c(OC)c(OC)c1
- IC50 [5]: 42.5 µM

Compound: COc1cc(C(=O)/C=C/c2ccc([N+](=O)[O-])cc2)cc(OC)c1OC
- IC50 [5]: > 100 µM

Compound: COc1cc(C(=O)/C=C/c2cccc([N+](=O)[O-])c2)cc(OC)c1OC
- IC50 [5]: > 56 µM

Compound: COc1cc(C(=O)/C=C/c2ccc(N(C)C)cc2)cc(OC)c1OC (mixture of isomers)
- IC50 [1]: 2.8 µM
- Activity [10]: inactive
- Activity [2]: 200 nM
- IC50 [3]: 1.2 µM
- IC50 [4]: 92.5 µM
- Activity [19]: Active
- IC50 [11]: 0.656 µM
- IC50 [5]: 30 µM
- Activity [13]: Active
- IC50 [14]: 66 µM
- EC50 [7]: 0.357 µM
- Activity [15]: 54%
- IC50 [9]: 1.05 µM
- Activity [16]: Active
- IC50 [17]: > 100 µM

Compound: CCCCOc1ccc(/C=C/C(=O)c2cc(OC)c(OC)c(OC)c2)cc1
- IC50 [5]: > 100 µM

Compound: COc1cc(C(=O)/C=C/c2ccc(F)cc2)cc(OC)c1OC
- IC50 [5]: 46.5 µM

Compound: COc1cc(C(=O)/C=C/c2ccc(Cl)cc2)cc(OC)c1OC
- IC50 [5]: 44.5 µM

Compound: O=C(/C=C/c1ccccc1)c1ccccc1 [CHALCONE]
- IC50 [1]: > 10 µM
- Activity [2]: > 50000 nM
- IC50 [3]: 17.1 µM
- IC50 [4]: 27 µM
- IC50 [5]: > 100 µM
- minimal effective concentration [6]: > 50 µM
- EC50 [7]: > 50 µM
- minimal effective concentration [8]: > 50 µM

Compound: COc1cc(C(=O)/C=C/c2c(Cl)cccc2Cl)cc(OC)c1OC
- IC50 [5]: 50.5 µM

Compound: COc1cc(C(=O)/C=C/c2ccc(Cl)cc2Cl)cc(OC)c1OC
- IC50 [5]: 52.5 µM
